Assay results as given in BigSolDB 2.1.

`CC(C(=O)O)c1ccc2c(c1)CC(=O)c1ccccc1S2` (stereo not drawn) gave a solubility (mole fraction) (in 1,4-dioxane, 288.15 K) of 0.0923, a solubility (mole fraction) (in 1,4-dioxane, 293.15 K) of 0.103 and a solubility (mole fraction) (in 1,4-dioxane, 298.15 K) of 0.114. The solubility (mole fraction) (in 1,4-dioxane, 303.15 K) was 0.127, the solubility (mole fraction) (in 1,4-dioxane, 308.15 K) was 0.142 and the solubility (mole fraction) (in 1,4-dioxane, 313.15 K) was 0.157. For the same molecule, the solubility (mole fraction) (in 1,4-dioxane, 318.15 K) was 0.173, the solubility (mole fraction) (in 1,4-dioxane, 323.15 K) was 0.19 and the solubility (mole fraction) (in 2-ethoxyethanol, 278.15 K) was 0.0373. The solubility (mole fraction) (in 2-ethoxyethanol, 283.15 K) was 0.0458, the solubility (mole fraction) (in 2-ethoxyethanol, 288.15 K) was 0.0518 and the solubility (mole fraction) (in 2-ethoxyethanol, 293.15 K) was 0.0596. It also gave a solubility (mole fraction) (in 2-ethoxyethanol, 298.15 K) of 0.0677, a solubility (mole fraction) (in 2-ethoxyethanol, 303.15 K) of 0.0779 and a solubility (mole fraction) (in 2-ethoxyethanol, 308.15 K) of 0.0911. It also gave a solubility (mole fraction) (in 2-ethoxyethanol, 313.15 K) of 0.106, a solubility (mole fraction) (in 2-ethoxyethanol, 318.15 K) of 0.12 and a solubility (mole fraction) (in 2-ethoxyethanol, 323.15 K) of 0.136. For the same molecule, the solubility (mole fraction) (in 2-methoxyethanol, 278.15 K) was 0.0278, the solubility (mole fraction) (in 2-methoxyethanol, 283.15 K) was 0.036 and the solubility (mole fraction) (in 2-methoxyethanol, 288.15 K) was 0.0437. The solubility (mole fraction) (in 2-methoxyethanol, 293.15 K) was 0.0516, the solubility (mole fraction) (in 2-methoxyethanol, 298.15 K) was 0.0619 and the solubility (mole fraction) (in 2-methoxyethanol, 303.15 K) was 0.074. It also gave a solubility (mole fraction) (in 2-methoxyethanol, 308.15 K) of 0.0878, a solubility (mole fraction) (in 2-methoxyethanol, 313.15 K) of 0.102 and a solubility (mole fraction) (in 2-methoxyethanol, 318.15 K) of 0.119. It also gave a solubility (mole fraction) (in 2-methoxyethanol, 323.15 K) of 0.138, a solubility (mole fraction) (in ethanol, 278.15 K) of 0.00265 and a solubility (mole fraction) (in ethanol, 283.15 K) of 0.00396. For the same molecule, the solubility (mole fraction) (in ethanol, 288.15 K) was 0.00522, the solubility (mole fraction) (in ethanol, 293.15 K) was 0.0071 and the solubility (mole fraction) (in ethanol, 298.15 K) was 0.00956. For the same molecule, the solubility (mole fraction) (in ethanol, 303.15 K) was 0.012, the solubility (mole fraction) (in ethanol, 308.15 K) was 0.0166 and the solubility (mole fraction) (in ethanol, 313.15 K) was 0.0222. For the same molecule, the solubility (mole fraction) (in ethanol, 318.15 K) was 0.03, the solubility (mole fraction) (in ethanol, 323.15 K) was 0.0418 and the solubility (mole fraction) (in ethyl acetate, 278.15 K) was 0.00812. For the same molecule, the solubility (mole fraction) (in ethyl acetate, 283.15 K) was 0.00951, the solubility (mole fraction) (in ethyl acetate, 288.15 K) was 0.0112 and the solubility (mole fraction) (in ethyl acetate, 293.15 K) was 0.0131. The solubility (mole fraction) (in ethyl acetate, 298.15 K) was 0.0154, the solubility (mole fraction) (in ethyl acetate, 303.15 K) was 0.0176 and the solubility (mole fraction) (in ethyl acetate, 308.15 K) was 0.0216. The solubility (mole fraction) (in ethyl acetate, 313.15 K) was 0.0256, the solubility (mole fraction) (in ethyl acetate, 318.15 K) was 0.0304 and the solubility (mole fraction) (in ethyl acetate, 323.15 K) was 0.0362.
